≈ marks a conversion by molar mass, not a printed value. Where two headings read alike, the source gives them in different places.
Experiments:
[1] = pH-dependent equilibrium solubility; type: physicochemical; conditions: for Equilibrium Solubility: BLOD = below limit of detection; for solubility thermodynamic at 12 h / solubility thermodynamic at 24 h: purified water, thermodynamic from solid
Method: First, the inventors of the present invention measured the pH-dependent equilibrium solubility of crisdesalazine (2-hydroxy-5-[2-(4-trifluoromethylphenyl)ethylamino]benzoic acid), and the results of the solubility at 12 hours and 24 hours were as shown in Table 1 and Figure 1 below. […]

[2] = Compatibility evaluation of crisdesalazine with excipients; type: physicochemical
Text: One embodiment of the present invention provides a pharmaceutical composition substantially free of lactose. The inventors conducted "compatibility" evaluation experiments between crisdesalazine and various excipients.
In other words, the long-term stability of crisdesalazine and lactose was difficult to predict based solely on short-term compatibility evaluation tests.
However, when compressed to a target hardness of 7-9 kPa, the target hardness was not achieved. The appearance of the tablet changed to a bluish gray color during the short period between mixing and compression.

## O=C(O)c1cc(NCCc2ccc(C(F)(F)F)cc2)ccc1O [crisdesalazine, 2-hydroxy-5-[2-(4-trifluoromethylphenyl)ethylamino]benzoic acid]
[1]; pH 3, 12 hours
  Equilibrium Solubility: BLOD
[1]; pH 3, 24 hours
  Equilibrium Solubility: BLOD
[1]; pH 4, 12 hours
  Equilibrium Solubility: BLOD
[1]; pH 1, simulated gastric fluid, pH 1, 12 hours, read-out: Equilibrium Solubility
  solubility thermodynamic at 12 h: 16.4 µg/mL (≈ 50.4 µM)
[1]; pH 1, simulated gastric fluid, pH 1, 24 hours, read-out: Equilibrium Solubility
  solubility thermodynamic at 24 h: 15.7 µg/mL (≈ 48.3 µM)
[1]; pH 2, simulated gastric fluid, pH 2, 12 hours, read-out: Equilibrium Solubility
  solubility thermodynamic at 12 h: 2.6 µg/mL (≈ 7.99 µM)
[1]; pH 2, simulated gastric fluid, pH 2, 24 hours, read-out: Equilibrium Solubility
  solubility thermodynamic at 24 h: 1.7 µg/mL (≈ 5.23 µM)
[1]; pH 4, aqueous buffer, pH 4, 24 hours, read-out: Equilibrium Solubility
  solubility thermodynamic at 24 h: 2.2 µg/mL (≈ 6.76 µM)
[1]; pH 5, aqueous buffer, pH 5, 12 hours, read-out: Equilibrium Solubility
  solubility thermodynamic at 12 h: 0.7 µg/mL (≈ 2.15 µM)
[1]; pH 5, aqueous buffer, pH 5, 24 hours, read-out: Equilibrium Solubility
  solubility thermodynamic at 24 h: 5.9 µg/mL (≈ 18.1 µM)
[1]; pH 6, aqueous buffer, pH 6, 12 hours, read-out: Equilibrium Solubility
  solubility thermodynamic at 12 h: 6.4 µg/mL (≈ 19.7 µM)
[1]; pH 6, aqueous buffer, pH 6, 24 hours, read-out: Equilibrium Solubility
  solubility thermodynamic at 24 h: 11.5 µg/mL (≈ 35.4 µM)
[1]; pH 7, aqueous buffer, pH 7, 12 hours, read-out: Equilibrium Solubility
  solubility thermodynamic at 12 h: 38.2 µg/mL (≈ 117 µM)
[1]; pH 7, aqueous buffer, pH 7, 24 hours, read-out: Equilibrium Solubility
  solubility thermodynamic at 24 h: 39.7 µg/mL (≈ 122 µM)
[1]; pH 7, aqueous buffer, pH 7 or lower, 12 hours, read-out: equilibrium solubility in purified water
  solubility thermodynamic at 12 h: ≤ 38.2 µg/mL
[1]; pH 7, aqueous buffer, pH 7 or lower, 24 hours, read-out: equilibrium solubility in purified water
  solubility thermodynamic at 24 h: ≤ 39.7 µg/mL
[1]; pH 8, aqueous buffer, pH 8, 12 hours, read-out: Equilibrium Solubility
  solubility thermodynamic at 12 h: 254 µg/mL (≈ 781 µM)
[1]; pH 8, aqueous buffer, pH 8, 24 hours, read-out: Equilibrium Solubility
  solubility thermodynamic at 24 h: 252 µg/mL (≈ 773 µM)
[1]; pH 9, aqueous buffer, pH 9, 12 hours, read-out: Equilibrium Solubility
  solubility thermodynamic at 12 h: 1210 µg/mL (≈ 3720 µM)
[1]; pH 9, aqueous buffer, pH 9, 24 hours, read-out: Equilibrium Solubility
  solubility thermodynamic at 24 h: 1230 µg/mL (≈ 3780 µM)
[1]; pH 10, aqueous buffer, pH 10, 12 hours, read-out: Equilibrium Solubility
  solubility thermodynamic at 12 h: 685 µg/mL (≈ 2110 µM)
[1]; pH 10, aqueous buffer, pH 10, 24 hours, read-out: Equilibrium Solubility
  solubility thermodynamic at 24 h: 678 µg/mL (≈ 2080 µM)
[1]; pH 11, aqueous buffer, pH 11, 12 hours, read-out: Equilibrium Solubility
  solubility thermodynamic at 12 h: 662 µg/mL (≈ 2040 µM)
[1]; pH 11, aqueous buffer, pH 11, 24 hours, read-out: Equilibrium Solubility
  solubility thermodynamic at 24 h: 718 µg/mL (≈ 2210 µM)
[1]; pH 12, aqueous buffer, pH 12, 12 hours, read-out: Equilibrium Solubility
  solubility thermodynamic at 12 h: 1220 µg/mL (≈ 3770 µM)
[1]; pH 12, aqueous buffer, pH 12, 24 hours, read-out: Equilibrium Solubility
  solubility thermodynamic at 24 h: 1220 µg/mL (≈ 3760 µM)
[2]; 13-week compatibility study, only minor powder coagulation, minimal changes in impurities
  compatibility with lactose: judged to be compatible
[2]; with calcium phosphate dibasic, hydroxypropyl methylcellulose (HPMC), meglumine, magnesium oxide (MgO)
  compatibility with excipients: poor compatibility
